The text below walks through data of patent US8871933B2, “Purified pyrroloquinolinyl-pyrrolidine-2,5-dione compositions and methods for preparing and using same” (ArQule, Inc., priority 2009, dated 2014).

One may read the IC50 as the point on the concentration scale where inhibition reaches its midpoint.

SMILES strings stand for the structures.

The test system of assay [1] is MDA-MB-231 cells. Briefly: Colony formation / surviving fraction assay. Particulars: Homo sapiens, two days incubation, colonies counted two weeks later, read-out: IC50 (surviving fraction equaled 50). In kind it is cell-based. The protocol:
MDA-MB-231 cells (ATCC #HTB-26), grown in DMEM plus 15% heat inactivated fetal bovine serum plus 10 mM HEPES pH 7.5, were plated in 60 mm^2 plates (2×10^5 cells per plate). After two days candidate compounds in DMSO at various concentrations were diluted in media and added to individual plates such that the final DMSO concentration in the cell culture media was 0.1%. After two days incubation the culture was trypsinized, cells were washed with media, counted using a hemocytometer and 500 cells, including cell bodies, were plated in 100 mm^2 plates in media. Two weeks later the media was removed and the cell colonies were fixed with methanol for 10 minutes, stained with 1% crystal violet for 10 minutes, washed with water and air dried. Cell colonies were visually counted when there were greater then 50 cells present per colony. Plating efficiency was defined as the average number of colonies formed divided by 500. The surviving fraction was defined as the plating efficiency of a candidate compound divided by the plating efficiency of DMSO multiplied by 100. For candidate compound titrations, the IC50 value was determined by fitting the equation y=Ae^Bx to the data points and extrapolating the concentration where surviving fraction equaled 50. […]

The target of assay [2] is c-Met (Homo sapiens, UniProt P08581). Description: c-Met in tumor biopsies from treated patients. Format: in vivo. Further details: the c-Met protein in tumor biopsies from patients; from tissue; host or cells: tumour biopsies from treated patients. As to conditions: patients treated with the drug.
Chain of c-Met (P08581 25-1390): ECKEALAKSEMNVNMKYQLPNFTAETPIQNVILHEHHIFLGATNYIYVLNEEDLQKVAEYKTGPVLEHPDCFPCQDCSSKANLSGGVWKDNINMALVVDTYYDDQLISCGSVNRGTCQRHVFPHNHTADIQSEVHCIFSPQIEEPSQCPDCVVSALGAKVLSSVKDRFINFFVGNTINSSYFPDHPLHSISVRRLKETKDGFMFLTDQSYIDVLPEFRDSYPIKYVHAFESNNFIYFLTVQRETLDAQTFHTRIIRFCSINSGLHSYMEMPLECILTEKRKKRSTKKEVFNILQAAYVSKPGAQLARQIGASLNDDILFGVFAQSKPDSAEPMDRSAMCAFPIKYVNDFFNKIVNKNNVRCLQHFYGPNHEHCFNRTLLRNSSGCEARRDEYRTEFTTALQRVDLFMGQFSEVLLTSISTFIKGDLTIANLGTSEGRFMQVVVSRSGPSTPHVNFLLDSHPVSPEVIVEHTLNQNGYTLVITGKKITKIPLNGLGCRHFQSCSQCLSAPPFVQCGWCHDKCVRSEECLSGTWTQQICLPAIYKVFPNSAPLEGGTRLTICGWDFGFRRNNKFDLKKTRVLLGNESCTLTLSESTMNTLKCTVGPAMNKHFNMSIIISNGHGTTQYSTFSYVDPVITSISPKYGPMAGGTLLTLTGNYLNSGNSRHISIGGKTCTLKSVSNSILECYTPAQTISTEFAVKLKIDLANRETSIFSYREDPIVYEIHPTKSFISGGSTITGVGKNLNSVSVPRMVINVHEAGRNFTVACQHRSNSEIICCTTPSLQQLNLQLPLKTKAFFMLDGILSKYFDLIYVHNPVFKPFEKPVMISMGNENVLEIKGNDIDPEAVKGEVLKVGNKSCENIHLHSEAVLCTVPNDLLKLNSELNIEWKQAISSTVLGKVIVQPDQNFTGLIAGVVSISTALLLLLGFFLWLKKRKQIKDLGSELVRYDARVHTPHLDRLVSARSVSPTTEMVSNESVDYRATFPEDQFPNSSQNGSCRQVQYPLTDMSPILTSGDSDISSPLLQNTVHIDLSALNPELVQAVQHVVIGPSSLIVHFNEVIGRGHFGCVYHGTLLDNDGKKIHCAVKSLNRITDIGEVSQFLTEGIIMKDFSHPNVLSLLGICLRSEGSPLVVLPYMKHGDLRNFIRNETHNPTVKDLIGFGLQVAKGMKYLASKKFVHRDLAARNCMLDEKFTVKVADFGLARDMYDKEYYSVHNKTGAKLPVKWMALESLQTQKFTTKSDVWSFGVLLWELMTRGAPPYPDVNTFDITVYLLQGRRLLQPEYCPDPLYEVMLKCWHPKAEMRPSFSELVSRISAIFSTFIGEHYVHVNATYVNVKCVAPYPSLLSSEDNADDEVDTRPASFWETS
The test system of assay [3] is human pancreatic cancer MIA PaCa2. Description: Human pancreatic cancer xenograft. Particulars: monotherapy. Format: in vivo. The procedure: The efficacy of (−)-trans-3-(5,6-dihydro-4H-pyrrolo[3,2,1-ij]quinolin-1-yl)-4-(1H-indol-3-yl)pyrrolidine-2,5-dione was also tested in xenograft models with several other cancer cell lines: human pancreatic cancer MIA PaCa2 (FIG. 9, Panel B), human prostate cancer PC3 (FIG. 9, Panel C) and human gastric cancer MKN45 (FIG. 9, Panel D). The cells were treated with (−)-trans-3-(5,6-dihydro-4H-pyrrolo[3,2,1-ij]quinolin-1-yl)-4-(1H-indol-3-yl)pyrrolidine-2,5-dione as a monotherapy at indicated concentrations.

Regarding `O=C1NC(=O)[C@@H](c2cn3c4c(cccc24)CCC3)[C@@H]1c1c[nH]c2ccccc12` (single isomer, unassigned) [(−)-trans-3-(5,6-dihydro-4H-pyrrolo[3,2,1-ij]quinolin-1-yl)-4-(1H-indol-3-yl)pyrrolidine-2,5-dione], in assay [1], the IC50 turned out to be 0.62 µM. Further, the “inhibition of c-Met protein in tumor biopsies” value in assay [2] is given as “ability to inhibit the c-Met protein in tumor biopsies”. Besides, the tumor growth entry in assay [3] is recorded as “significantly inhibited tumor growth”.
